Test results taken from patent US12448369B2 (Edgewise Therapeutics, Inc., priority 2023, dated 2025).

What was measured:
[1] = system: Porcine atria myofibrils (atrial myosin ATPase); experiment: Myofibril ATPase assay, porcine atria myofibrils; type: biochemical; conditions: porcine atria myofibrils
Method in brief: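 Values are Y75 (concentration cutting ATPase activity to 75% of vehicle) or Y125 (raising it to 125%), taken from 4-parameter logistic fits. Rates come from NADH disappearance at 340 nm in a PK/LDH-coupled assay with porcine atria myofibrils.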

[2] = target: T1, Porcine ventricle myofibrils (ventricular myosin ATPase) (Sus scrofa, UniProt P79293); experiment: Myofibril ATPase assay, porcine ventricle myofibrils; type: biochemical, porcine (Yucatan minipigs); conditions: porcine ventricle myofibrils
T1 construct: Myofibrils from porcine cardiac muscle was isolated from the left ventricle of Yucatan minipigs; tissue Exemplar Genetics; host or cells: left ventricle of Yucatan minipigs, myofibrils prepared in house
T1 sequence (P79293 whole entry): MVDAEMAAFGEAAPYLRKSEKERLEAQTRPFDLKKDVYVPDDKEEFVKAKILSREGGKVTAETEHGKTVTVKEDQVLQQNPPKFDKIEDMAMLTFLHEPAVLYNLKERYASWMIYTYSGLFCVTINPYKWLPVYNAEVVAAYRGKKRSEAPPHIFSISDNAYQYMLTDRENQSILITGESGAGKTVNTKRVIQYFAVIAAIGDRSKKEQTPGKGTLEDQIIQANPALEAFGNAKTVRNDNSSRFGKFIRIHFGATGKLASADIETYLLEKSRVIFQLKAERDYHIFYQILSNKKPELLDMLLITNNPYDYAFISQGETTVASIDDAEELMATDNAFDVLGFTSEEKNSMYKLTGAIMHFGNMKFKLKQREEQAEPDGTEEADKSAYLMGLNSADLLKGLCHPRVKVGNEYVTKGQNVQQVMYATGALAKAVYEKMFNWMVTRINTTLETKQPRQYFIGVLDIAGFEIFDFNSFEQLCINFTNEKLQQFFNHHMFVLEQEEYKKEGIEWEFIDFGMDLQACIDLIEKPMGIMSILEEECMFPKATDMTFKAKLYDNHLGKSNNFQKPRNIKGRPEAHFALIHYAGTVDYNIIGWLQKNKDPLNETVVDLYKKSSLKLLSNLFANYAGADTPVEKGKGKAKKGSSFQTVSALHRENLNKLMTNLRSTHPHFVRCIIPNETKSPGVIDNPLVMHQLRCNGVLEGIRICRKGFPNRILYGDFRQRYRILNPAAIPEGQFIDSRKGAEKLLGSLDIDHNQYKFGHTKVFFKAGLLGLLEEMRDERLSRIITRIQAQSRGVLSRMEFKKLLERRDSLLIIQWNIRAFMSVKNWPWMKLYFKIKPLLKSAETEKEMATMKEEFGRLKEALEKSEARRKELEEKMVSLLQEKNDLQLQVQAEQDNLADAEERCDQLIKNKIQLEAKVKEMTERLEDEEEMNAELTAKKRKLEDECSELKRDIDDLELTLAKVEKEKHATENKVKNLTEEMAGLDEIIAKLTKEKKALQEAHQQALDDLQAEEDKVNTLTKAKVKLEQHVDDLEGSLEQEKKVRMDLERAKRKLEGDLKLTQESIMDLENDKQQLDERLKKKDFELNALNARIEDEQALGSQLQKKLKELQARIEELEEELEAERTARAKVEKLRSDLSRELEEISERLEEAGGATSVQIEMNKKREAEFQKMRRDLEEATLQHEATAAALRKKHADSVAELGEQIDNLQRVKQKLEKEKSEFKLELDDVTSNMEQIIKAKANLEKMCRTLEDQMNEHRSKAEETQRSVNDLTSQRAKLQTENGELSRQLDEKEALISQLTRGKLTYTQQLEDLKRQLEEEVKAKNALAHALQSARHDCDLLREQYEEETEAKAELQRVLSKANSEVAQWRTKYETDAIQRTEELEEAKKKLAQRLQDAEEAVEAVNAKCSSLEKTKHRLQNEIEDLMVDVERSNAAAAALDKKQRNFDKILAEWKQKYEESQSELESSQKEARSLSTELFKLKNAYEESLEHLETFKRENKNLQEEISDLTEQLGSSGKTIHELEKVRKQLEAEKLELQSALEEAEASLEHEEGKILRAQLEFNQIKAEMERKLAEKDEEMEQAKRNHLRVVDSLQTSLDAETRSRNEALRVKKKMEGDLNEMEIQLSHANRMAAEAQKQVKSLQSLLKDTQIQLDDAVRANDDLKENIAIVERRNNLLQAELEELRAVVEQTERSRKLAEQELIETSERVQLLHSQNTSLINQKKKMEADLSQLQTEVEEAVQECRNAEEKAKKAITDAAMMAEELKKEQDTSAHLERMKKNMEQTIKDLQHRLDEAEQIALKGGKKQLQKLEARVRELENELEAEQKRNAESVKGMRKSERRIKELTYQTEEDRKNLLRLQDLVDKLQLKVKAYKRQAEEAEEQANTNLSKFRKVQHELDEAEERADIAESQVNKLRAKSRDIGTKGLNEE
Method in brief: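 Test compounds acted on myofibrils isolated from the left ventricle of Yucatan minipigs. ADP formation was coupled via pyruvate kinase/lactate dehydrogenase to NADH oxidation, monitored kinetically at 340 nm over 75 min. Rates relative to vehicle were fitted with a 4-parameter logistic model, reported as Y75 (25% inhibition) or Y125 (activation) concentrations.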

[3] = system: Rabbit Psoas myofibrils (skeletal myosin ATPase); experiment: Myofibril ATPase assay, rabbit psoas (skeletal) myofibrils; type: biochemical; conditions: rabbit psoas myofibrils
Method in brief: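 Myofibrils homogenized in Triton X-100 buffer were assayed in pH 7.0 PIPES with defined Ca2+/EGTA. Myosin-driven ADP formation was coupled to NADH oxidation, with depletion monitored at 340 nm. Each value is the concentration that lowers activity to 75% of vehicle or, for activators, raises it to 125%.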

[4] = Y75 value (75% activity relative to no compound)
[5] = ‡ Y125 value, not a Y75 value (125% activity relative to no compound)

## C[C@H](NC(=O)Cc1cc2cc(F)c(F)cc2[nH]c1=O)c1ncc(C#N)cn1 (single isomer, unassigned) [compound 2036]
[1]; Y75 value (no ‡ mark)
  Atrial EC25: 100.00 µM
[2]; Y75 value (no ‡ mark)
  Ventricular EC25: 100.00 µM
[3]; Y75 value (no ‡ mark)
  Skeletal EC25: 100.00 µM

## C[C@H](NC(=O)Cc1c(C2CC2)c2cc(F)ccc2[nH]c1=O)c1ccc(C#N)cn1 [compound 56]
[1]; Y75 value (no ‡ mark)
  Atrial EC25: 2.47 µM
[2]; Y75 value (no ‡ mark)
  Ventricular EC25: 3.98 µM
[3]; Y75 value (no ‡ mark)
  Skeletal EC25: 0.12 µM

## Cc1c([C@@H](Cc2ccccc2)C(=O)N[C@@H](C)c2ccc(F)cc2F)c(=O)[nH]c2ccnc(F)c12 (single isomer, unassigned) [compound 358]
[1]; [4]
  Atrial EC25: 23.89 µM
[2]; Y75 value
  Ventricular EC25: 54.71 µM
[3]; Y75 value
  Skeletal EC25: 100.00 µM

## Cc1c([C@@H](C)C(=O)N[C@@H](C)c2ccc(F)cc2F)c(=O)[nH]c2ccc(F)c(F)c12 (single isomer, unassigned) [compound 108]
[1]; Y75 value (no ‡ mark)
  Atrial EC25: 0.04 µM
[2]; Y75 value (no ‡ mark)
  Ventricular EC25: 0.28 µM
[3]; Y75 value (no ‡ mark)
  Skeletal EC25: 0.05 µM

## Cc1nccc2[nH]c(=O)c(CC(=O)N[C@H](CCO)c3ccc(F)cc3F)c(C)c12 (single isomer, unassigned) [compound 341]
[1]; [4]
  Atrial EC25: 100.00 µM
[2]; Y75 value
  Ventricular EC25: 100.00 µM
[3]; Y75 value
  Skeletal EC25: 100.00 µM

## Cc1c(CC(=O)N[C@@H](C)c2ccc(C#N)cc2F)c(=O)[nH]c2ccc(C(F)(F)F)nc12 (single isomer, unassigned) [compound 209]
[1]; [4]
  Atrial EC25: 0.03 µM
[2]; Y75 value
  Ventricular EC25: 0.14 µM
[3]; Y75 value
  Skeletal EC25: 0.01 µM

## Cc1c(C(F)(F)C(=O)N[C@H]2CCc3cc(C#N)cnc32)c(=O)[nH]c2ccc(F)cc12 (single isomer, unassigned) [compound 2516]
[1]; Y75 value (no ‡ mark)
  Atrial EC25: 0.79 µM
[2]; Y75 value (no ‡ mark)
  Ventricular EC25: 100.00 µM
[3]; Y75 value (no ‡ mark)
  Skeletal EC25: 0.67 µM

## Cc1c(CC(=O)N[C@@H](C)c2ncc(C#N)cn2)c(=O)[nH]c2cc(F)ccc12 [compound 1041]
[1]; Y75 value (no ‡ mark)
  Atrial EC25: 18.0 µM
[2]; Y75 value (no ‡ mark)
  Ventricular EC25: 76 µM
[3]; Y75 value (no ‡ mark)
  Skeletal EC25: 7.39 µM

## Cc1nc(C#N)ccc1[C@H](C)NC(=O)Cc1c(C)c2c(C)c(F)ccc2[nH]c1=O (single isomer, unassigned) [compound 2079]
[1]; Y75 value (no ‡ mark)
  Atrial EC25: 0.13 µM
[2]; Y75 value (no ‡ mark)
  Ventricular EC25: 0.07 µM
[3]; Y75 value (no ‡ mark)
  Skeletal EC25: 0.03 µM

## C[C@@H](NC(=O)Cc1cc2c(C#N)nccc2[nH]c1=O)c1ccc(F)cn1 [compound 474]
[1]; [4]
  Atrial EC25: 100.00 µM
[2]; Y75 value
  Ventricular EC25: 100.00 µM
[3]; Y75 value
  Skeletal EC25: 15.42 µM

## Cc1c(C2(C(=O)N[C@H](C)c3ncc(C#N)cc3F)CC2)c(=O)[nH]c2ccc(F)cc12 (single isomer, unassigned) [compound 2596]
[1]; Y75 value (no ‡ mark)
  Atrial EC25: 0.11 µM
[2]; Y75 value (no ‡ mark)
  Ventricular EC25: 0.55 µM
[3]; Y75 value (no ‡ mark)
  Skeletal EC25: 0.16 µM

## Cc1nccc2[nH]c(=O)c(CC(=O)N[C@@H](CCO)c3ccc(F)cc3F)c(C)c12 (single isomer, unassigned) [compound 342]
[1]; [4]
  Atrial EC25: 3.65 µM
[2]; Y75 value
  Ventricular EC25: 52.00 µM
[3]; Y75 value
  Skeletal EC25: 11.14 µM

## Cc1c(CC(=O)N[C@@H](C)c2ccc(F)cc2F)c(=O)[nH]c2ccc(C(F)(F)F)nc12 [compound 393]
[1]; [4]
  Atrial EC25: 2.46 µM
[2]; Y75 value
  Ventricular EC25: 0.42 µM
[3]; Y75 value
  Skeletal EC25: 0.02 µM

## Cc1nccc2[nH]c(=O)c([C@@H](C)C(=O)N[C@H](C)c3ncc(C#N)cc3F)c(C)c12 (single isomer, unassigned) [compound 191]
[1]; [4]
  Atrial EC25: 1.73 µM
[2]; Y75 value
  Ventricular EC25: 100.00 µM
[3]; Y75 value
  Skeletal EC25: 4.04 µM

## N#Cc1cc(F)c2c(c1)OC[C@@H]2NC(=O)C1(c2cc3c(F)c(F)ccc3[nH]c2=O)CC1 (single isomer, unassigned) [compound 4822]
[1]; Y75 value (no ‡ mark)
  Atrial EC25: 0.16 µM
[2]; Y75 value (no ‡ mark)
  Ventricular EC25: 0.48 µM
[3]; Y75 value (no ‡ mark)
  Skeletal EC25: 0.08 µM

## C[C@H](NC(=O)Cc1cc2c(C(F)(F)F)c(F)ccc2[nH]c1=O)c1ncc(C#N)cn1 (single isomer, unassigned) [compound 2010]
[1]; Y75 value (no ‡ mark)
  Atrial EC25: 1.25 µM
[2]; Y75 value (no ‡ mark)
  Ventricular EC25: 3.45 µM
[3]; Y75 value (no ‡ mark)
  Skeletal EC25: 0.66 µM

## Cc1c(CC(=O)N[C@H](C)c2ncc(F)cc2F)c(=O)[nH]c2ccc(C#N)nc12 (single isomer, unassigned) [compound 249]
[1]; [4]
  Atrial EC25: 100.00 µM
[2]; Y75 value
  Ventricular EC25: 100.00 µM
[3]; Y75 value
  Skeletal EC25: 100.00 µM

## C[C@H](NC(=O)Cc1cc2c(F)nccc2[nH]c1=O)c1ccc(F)cc1F [compound 394]
[1]; [4]
  Atrial EC25: 0.27 µM
[2]; Y75 value
  Ventricular EC25: 0.53 µM
[3]; Y75 value
  Skeletal EC25: 0.03 µM

## C[C@H](NC(=O)Cc1cc2ccc(F)cc2[nH]c1=O)c1ncc(C#N)cn1 (single isomer, unassigned) [compound 2034]
[1]; Y75 value (no ‡ mark)
  Atrial EC25: 100.00 µM
[2]; Y75 value (no ‡ mark)
  Ventricular EC25: 100.00 µM
[3]; [5]
  Skeletal EC25: 100.00‡ μM

## Cc1nncc2[nH]c(=O)c(CC(=O)N[C@H](C)c3ccc(F)cc3F)cc12 [compound 499]
[1]; [4]
  Atrial EC25: 100 µM
[2]; Y75 value
  Ventricular EC25: 100 µM
[3]; Y75 value
  Skeletal EC25: 100 µM

## Cc1ccc([C@@H](CO)NC(=O)Cc2c(C)c3c(C)nccc3[nH]c2=O)cc1 (single isomer, unassigned) [compound 335]
[1]; [4]
  Atrial EC25: 100.00 µM
[2]; Y75 value
  Ventricular EC25: 100.00 µM
[3]; Y75 value
  Skeletal EC25: 26.39 µM

## Cc1c(CC(=O)N[C@H](C)c2ncc(C#N)cc2F)c(=O)[nH]c2cccc(F)c12 [compound 51]
[1]; Y75 value (no ‡ mark)
  Atrial EC25: 0.23 µM
[2]; Y75 value (no ‡ mark)
  Ventricular EC25: 0.40 µM
[3]; Y75 value (no ‡ mark)
  Skeletal EC25: 0.06 µM

## Cc1ccc2[nH]c(=O)c(CC(=O)N[C@H](C)c3ncc(C#N)cn3)cc2c1F (single isomer, unassigned) [compound 2013]
[1]; Y75 value (no ‡ mark)
  Atrial EC25: 16.08 µM
[2]; Y75 value (no ‡ mark)
  Ventricular EC25: 100.00 µM
[3]; Y75 value (no ‡ mark)
  Skeletal EC25: 13.05 µM

## Cc1nccc2[nH]c(=O)c(CC(=O)N[C@H](C)c3ccc(O)nc3)c(C)c12 (single isomer, unassigned) [compound 295]
[1]; [4]
  Atrial EC25: 100.00 µM
[2]; Y75 value
  Ventricular EC25: 100.00 µM
[3]; Y75 value
  Skeletal EC25: 100.00 µM

## Cc1c(CC(=O)N[C@@H](C)c2ccc(F)cc2F)c(=O)[nH]c2ccncc12 [compound 448]
[1]; [4]
  Atrial EC25: 0.65 µM
[2]; Y75 value
  Ventricular EC25: 7.29 µM
[3]; Y75 value
  Skeletal EC25: 0.17 µM

## Cc1nccc2[nH]c(=O)c(CC(=O)N[C@@H](c3ccc(F)cc3F)C(C)(C)O)c(C)c12 (single isomer, unassigned) [compound 271]
[1]; [4]
  Atrial EC25: 100.00 µM
[2]; Y75 value
  Ventricular EC25: 100.00 µM
[3]; Y75 value
  Skeletal EC25: 100.00 µM

## N#Cc1cnc2c(c1)CC[C@@H]2NC(=O)Cc1cc2c(F)c(F)ccc2[nH]c1=O (single isomer, unassigned) [compound 8]
[1]; Y75 value (no ‡ mark)
  Atrial EC25: 100.00 µM
[2]; Y75 value (no ‡ mark)
  Ventricular EC25: 100.00 µM
[3]; Y75 value (no ‡ mark)
  Skeletal EC25: 100.00 µM

## C[C@H](NC(=O)C1(c2cc3cc(F)ccc3[nH]c2=O)CC1)c1nccc(C#N)n1 (single isomer, unassigned) [compound 2508]
[1]; Y75 value (no ‡ mark)
  Atrial EC25: 100.00 µM
[2]; [5]
  Ventricular EC25: 70.50‡ μM
[3]; Y75 value (no ‡ mark)
  Skeletal EC25: 5.03 µM

## Cc1c(CC(=O)N[C@@H](C)c2ccc(F)cc2F)c(=O)[nH]c2ccnc(N3CCCC3)c12 [compound 346]
[1]; [4]
  Atrial EC25: 100.00 µM
[2]; Y75 value
  Ventricular EC25: 100.00 µM
[3]; Y75 value
  Skeletal EC25: 2.37 µM

## C[C@H](C(=O)N[C@H](C)c1ncc(C#N)cc1F)c1cc2c(F)c(F)ccc2[nH]c1=O (single isomer, unassigned) [compound 2599]
[1]; Y75 value (no ‡ mark)
  Atrial EC25: 2.16 µM
[2]; Y75 value (no ‡ mark)
  Ventricular EC25: 16.66 µM
[3]; [5]
  Skeletal EC25: 100.00‡ μM

## Cc1c(C(F)(F)C(=O)N[C@@H](C)c2ccc(F)cc2F)c(=O)[nH]c2ccnc(Cl)c12 [compound 401]
[1]; [4]
  Atrial EC25: 0.05 µM
[2]; Y75 value
  Ventricular EC25: 0.20 µM
[3]; Y75 value
  Skeletal EC25: 0.02 µM

## C[C@H](NC(=O)[C@H](C)c1cc2c(F)c(F)ccc2[nH]c1=O)c1ncc(C#N)cc1F (relative stereo) [compound 2604, (2R*)-N-[(1S)-1-(5-cyano-3-fluoropyridin-2-yl)ethyl]-2-(5,6-difluoro-2-oxo-1H-quinolin-3-yl)propanamide]
[1]; Y75 value (no ‡ mark)
  Atrial EC25: 0.12 µM
[2]; Y75 value (no ‡ mark)
  Ventricular EC25: 0.75 µM
[3]; Y75 value (no ‡ mark)
  Skeletal EC25: 0.54 µM

## Cc1nccc2[nH]c(=O)c([C@H](C)C(=O)N[C@@H](C)c3ncc(C#N)cc3F)c(C)c12 (single isomer, unassigned) [compound 194]
[1]; [4]
  Atrial EC25: 5.87 µM
[2]; Y75 value
  Ventricular EC25: 100.00 µM
[3]; Y75 value
  Skeletal EC25: 1.22 µM

## Cc1nccc2[nH]c(=O)c(CC(=O)N[C@H]3c4c(F)cc(F)cc4OC3(C)C)c(C)c12 (single isomer, unassigned) [compound 189]
[1]; [4]
  Atrial EC25: 1.22 µM
[2]; Y75 value
  Ventricular EC25: 13.14 µM
[3]; Y75 value
  Skeletal EC25: 0.87 µM

## Cc1c(CC(=O)N[C@H](CO)c2ncc(C#N)cc2F)c(=O)[nH]c2ccnc(C#N)c12 (single isomer, unassigned) [compound 245]
[1]; [4]
  Atrial EC25: 8.37 µM
[2]; Y75 value
  Ventricular EC25: 9.46 µM
[3]; Y75 value
  Skeletal EC25: 0.93 µM

## Cc1c(C(F)(F)C(=O)N[C@H](C)c2cnc(C#N)cn2)c(=O)[nH]c2ccc(F)cc12 (single isomer, unassigned) [compound 2563]
[1]; Y75 value (no ‡ mark)
  Atrial EC25: 0.15 µM
[2]; Y75 value (no ‡ mark)
  Ventricular EC25: 0.54 µM
[3]; Y75 value (no ‡ mark)
  Skeletal EC25: 0.12 µM
